From ChEMBL document CHEMBL1201862, “PubChem BioAssay data set” (2004)
Structures can show the parent of a compound that is named as a salt. Calls of active or inactive are those of the source.

Columns and labels:
[1] = target: Voltage-gated inwardly rectifying potassium channel KCNH2 (Homo sapiens, UniProt Q12809); details: Potency;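 note: confirmatory quantitative high-throughput screen measuring inhibition of hERG channel activity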
Hexokinase HKDC1 = target: T1, Hexokinase HKDC1 (Homo sapiens, UniProt Q2TB90); test: activation of HKDC1 glucose phosphorylation – biochemical, W721R variant, dose response (AID 504730); assay type: functional
T1 sequence (Q2TB90 whole entry): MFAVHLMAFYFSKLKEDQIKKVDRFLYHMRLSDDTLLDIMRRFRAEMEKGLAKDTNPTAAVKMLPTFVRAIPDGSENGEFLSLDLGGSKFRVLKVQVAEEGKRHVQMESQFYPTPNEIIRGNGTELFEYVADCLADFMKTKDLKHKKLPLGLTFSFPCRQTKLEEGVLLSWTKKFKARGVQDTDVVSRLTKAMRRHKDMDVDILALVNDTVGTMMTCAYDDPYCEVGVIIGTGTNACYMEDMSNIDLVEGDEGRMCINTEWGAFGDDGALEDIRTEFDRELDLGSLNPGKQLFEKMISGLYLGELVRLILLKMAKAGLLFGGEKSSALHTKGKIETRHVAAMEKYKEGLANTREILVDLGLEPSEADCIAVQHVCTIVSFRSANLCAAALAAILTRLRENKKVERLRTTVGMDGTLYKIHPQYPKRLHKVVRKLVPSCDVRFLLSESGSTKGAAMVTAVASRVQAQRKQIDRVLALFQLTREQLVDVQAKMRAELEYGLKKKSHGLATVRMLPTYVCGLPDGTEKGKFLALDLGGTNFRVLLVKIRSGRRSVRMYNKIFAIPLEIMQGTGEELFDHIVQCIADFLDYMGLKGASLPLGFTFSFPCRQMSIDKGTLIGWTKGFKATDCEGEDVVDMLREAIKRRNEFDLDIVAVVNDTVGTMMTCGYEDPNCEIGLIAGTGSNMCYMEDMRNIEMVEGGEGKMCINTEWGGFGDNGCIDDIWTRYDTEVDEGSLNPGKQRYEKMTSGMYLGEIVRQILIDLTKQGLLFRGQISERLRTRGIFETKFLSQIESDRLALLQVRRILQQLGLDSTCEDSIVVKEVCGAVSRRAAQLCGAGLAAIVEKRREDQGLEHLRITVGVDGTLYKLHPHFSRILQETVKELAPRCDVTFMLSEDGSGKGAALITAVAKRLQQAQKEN

Nonstructural protein 1 = Nonstructural protein 1 (Influenza A virus, UniProt Q194T2); assay type: functional, Influenza A virus (A/California/07/2009(H1N1))
Hexokinase-1 = target: T2, Hexokinase-1 (Homo sapiens, UniProt P19367); test: HK1 enzyme activation by HKDC1 hits – biochemical, selectivity assay for HKDC1 activator project, dose response (AID 504762); assay type: functional
T2 sequence (P19367 whole entry): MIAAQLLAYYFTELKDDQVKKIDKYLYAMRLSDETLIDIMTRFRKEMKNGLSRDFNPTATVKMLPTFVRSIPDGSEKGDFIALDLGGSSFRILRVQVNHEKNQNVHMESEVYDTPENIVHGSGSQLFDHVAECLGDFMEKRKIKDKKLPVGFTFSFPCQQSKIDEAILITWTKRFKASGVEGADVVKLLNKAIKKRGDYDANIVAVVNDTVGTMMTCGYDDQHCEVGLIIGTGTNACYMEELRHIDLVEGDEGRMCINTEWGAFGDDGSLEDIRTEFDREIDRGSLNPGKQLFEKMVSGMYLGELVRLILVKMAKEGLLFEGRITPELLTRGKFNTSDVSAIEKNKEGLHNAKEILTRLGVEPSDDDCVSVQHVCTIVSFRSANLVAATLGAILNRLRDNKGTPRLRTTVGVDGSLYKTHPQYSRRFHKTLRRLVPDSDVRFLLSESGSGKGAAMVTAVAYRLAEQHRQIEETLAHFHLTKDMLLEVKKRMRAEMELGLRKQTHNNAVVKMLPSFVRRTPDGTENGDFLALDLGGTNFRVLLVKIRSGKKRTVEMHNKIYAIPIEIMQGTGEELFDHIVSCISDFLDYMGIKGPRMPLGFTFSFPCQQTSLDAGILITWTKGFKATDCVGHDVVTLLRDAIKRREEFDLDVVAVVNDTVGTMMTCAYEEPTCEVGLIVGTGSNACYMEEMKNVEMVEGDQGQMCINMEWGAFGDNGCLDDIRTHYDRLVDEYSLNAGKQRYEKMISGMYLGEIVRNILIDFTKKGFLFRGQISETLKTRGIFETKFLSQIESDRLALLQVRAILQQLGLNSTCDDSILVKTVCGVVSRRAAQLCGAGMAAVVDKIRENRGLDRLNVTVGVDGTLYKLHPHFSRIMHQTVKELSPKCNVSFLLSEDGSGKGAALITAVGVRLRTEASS

[2] = target: Peroxisome proliferator-activated receptor gamma/Nuclear receptor coactivator 1 (Homo sapiens, UniProt P37231); test: TR-FRET dose response biochemical High Throughput Screening assay for agonists of the steroid receptor coactivator 1 (SRC-1) recruitment by the peroxisome proliferator-activated receptor gamma (PPAR gamma): non-selective agonists. [Related pubchem assays (depositor defined):AID1300, AID1808, AID504735, AID631]; assay type: protein assay
[3] = target: Peroxisome proliferator-activated receptor gamma/Nuclear receptor coactivator 2 (Homo sapiens, UniProt P37231); test: TR-FRET dose response biochemical High Throughput Screening assay for agonists of the steroid receptor coactivator 2 (SRC-2) recruitment by the peroxisome proliferator-activated receptor gamma (PPAR gamma): non-selective agonists. [Related pubchem assays: 1297, 1032 ]; assay type: functional
Sequence of Peroxisome proliferator-activated receptor gamma/Nuclear receptor coactivator 2 (P37231 whole entry): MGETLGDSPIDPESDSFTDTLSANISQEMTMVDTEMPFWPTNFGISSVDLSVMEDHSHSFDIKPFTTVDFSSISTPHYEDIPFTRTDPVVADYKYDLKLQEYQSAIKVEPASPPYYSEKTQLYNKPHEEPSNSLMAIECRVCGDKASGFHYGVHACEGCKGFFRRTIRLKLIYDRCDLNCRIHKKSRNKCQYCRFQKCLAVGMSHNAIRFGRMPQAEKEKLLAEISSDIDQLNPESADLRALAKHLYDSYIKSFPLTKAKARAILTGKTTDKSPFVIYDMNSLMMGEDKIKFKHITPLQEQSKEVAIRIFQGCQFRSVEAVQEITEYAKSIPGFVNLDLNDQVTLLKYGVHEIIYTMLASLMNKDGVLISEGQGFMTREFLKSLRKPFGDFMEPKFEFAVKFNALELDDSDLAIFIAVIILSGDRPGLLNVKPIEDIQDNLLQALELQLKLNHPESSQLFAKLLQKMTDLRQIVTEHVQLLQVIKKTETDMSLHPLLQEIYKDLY
Sequence of Peroxisome proliferator-activated receptor gamma/Nuclear receptor coactivator 2 (Q15596 whole entry, further chain): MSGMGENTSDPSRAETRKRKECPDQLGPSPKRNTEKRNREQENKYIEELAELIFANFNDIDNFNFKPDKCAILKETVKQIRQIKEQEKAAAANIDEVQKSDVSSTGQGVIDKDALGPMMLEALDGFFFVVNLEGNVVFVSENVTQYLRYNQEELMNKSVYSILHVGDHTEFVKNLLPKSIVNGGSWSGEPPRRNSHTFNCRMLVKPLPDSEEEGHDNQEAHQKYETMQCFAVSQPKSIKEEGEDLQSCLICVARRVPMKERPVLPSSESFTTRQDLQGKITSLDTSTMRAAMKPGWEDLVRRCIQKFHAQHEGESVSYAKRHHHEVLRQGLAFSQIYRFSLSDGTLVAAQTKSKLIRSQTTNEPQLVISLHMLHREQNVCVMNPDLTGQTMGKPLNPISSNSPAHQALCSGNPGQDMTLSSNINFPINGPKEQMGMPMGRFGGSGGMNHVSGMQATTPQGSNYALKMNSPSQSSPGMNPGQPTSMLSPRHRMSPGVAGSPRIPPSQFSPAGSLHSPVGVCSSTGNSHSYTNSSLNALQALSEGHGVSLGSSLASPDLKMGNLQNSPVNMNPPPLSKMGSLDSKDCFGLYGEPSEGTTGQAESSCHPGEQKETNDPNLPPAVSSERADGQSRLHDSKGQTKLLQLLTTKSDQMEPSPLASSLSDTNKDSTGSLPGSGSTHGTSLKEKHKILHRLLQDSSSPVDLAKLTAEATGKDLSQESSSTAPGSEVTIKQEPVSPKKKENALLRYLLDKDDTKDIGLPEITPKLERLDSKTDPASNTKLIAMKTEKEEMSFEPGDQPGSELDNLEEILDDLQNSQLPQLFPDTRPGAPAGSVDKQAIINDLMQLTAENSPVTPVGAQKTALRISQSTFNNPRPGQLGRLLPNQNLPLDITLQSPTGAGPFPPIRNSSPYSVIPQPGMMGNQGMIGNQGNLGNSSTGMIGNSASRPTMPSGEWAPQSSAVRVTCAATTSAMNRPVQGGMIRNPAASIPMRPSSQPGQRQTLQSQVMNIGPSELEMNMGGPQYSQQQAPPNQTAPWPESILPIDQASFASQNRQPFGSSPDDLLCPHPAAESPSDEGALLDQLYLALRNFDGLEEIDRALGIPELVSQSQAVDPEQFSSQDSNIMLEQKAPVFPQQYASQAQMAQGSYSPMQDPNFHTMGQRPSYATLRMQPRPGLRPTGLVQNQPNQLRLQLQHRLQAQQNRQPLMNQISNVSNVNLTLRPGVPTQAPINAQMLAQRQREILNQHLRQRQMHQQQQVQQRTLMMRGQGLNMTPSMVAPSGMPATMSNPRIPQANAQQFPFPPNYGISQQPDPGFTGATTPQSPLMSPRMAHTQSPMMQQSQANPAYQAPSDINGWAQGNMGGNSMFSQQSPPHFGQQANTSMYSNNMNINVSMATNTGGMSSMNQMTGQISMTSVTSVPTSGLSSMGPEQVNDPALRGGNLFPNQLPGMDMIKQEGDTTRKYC

H9c2 = test: cells; assay type: functional, cell-based; details: Rattus norvegicus, H9c2, Myocardium;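 note: confirmatory concentration-response retest of ultra-high-throughput screening hits for modulation of myocardial damage; cell death induced by hydrogen peroxide oxidative stress; compound pretreatment for 60 min then peroxide exposure for 2 h; potency is for protecting the cells against peroxide damage rather than for killing them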
[4] = target: Peroxisome proliferator-activated receptor gamma/Nuclear receptor coactivator 3 (Homo sapiens, UniProt P37231); test: TR-FRET dose response biochemical High Throughput Screening assay for agonists of the steroid receptor coactivator 3 (SRC-3) recruitment by the peroxisome proliferator-activated receptor gamma (PPAR gamma): non-selective agonists. [Related pubchem assays: 1301 (Confirmation screen.), 1048 (Primary screen.)]; assay type: functional
Sequence of Peroxisome proliferator-activated receptor gamma/Nuclear receptor coactivator 3 (P37231 whole entry): as the sequence (P37231 whole entry) above
Sequence of Peroxisome proliferator-activated receptor gamma/Nuclear receptor coactivator 3 (Q9Y6Q9 whole entry, further chain): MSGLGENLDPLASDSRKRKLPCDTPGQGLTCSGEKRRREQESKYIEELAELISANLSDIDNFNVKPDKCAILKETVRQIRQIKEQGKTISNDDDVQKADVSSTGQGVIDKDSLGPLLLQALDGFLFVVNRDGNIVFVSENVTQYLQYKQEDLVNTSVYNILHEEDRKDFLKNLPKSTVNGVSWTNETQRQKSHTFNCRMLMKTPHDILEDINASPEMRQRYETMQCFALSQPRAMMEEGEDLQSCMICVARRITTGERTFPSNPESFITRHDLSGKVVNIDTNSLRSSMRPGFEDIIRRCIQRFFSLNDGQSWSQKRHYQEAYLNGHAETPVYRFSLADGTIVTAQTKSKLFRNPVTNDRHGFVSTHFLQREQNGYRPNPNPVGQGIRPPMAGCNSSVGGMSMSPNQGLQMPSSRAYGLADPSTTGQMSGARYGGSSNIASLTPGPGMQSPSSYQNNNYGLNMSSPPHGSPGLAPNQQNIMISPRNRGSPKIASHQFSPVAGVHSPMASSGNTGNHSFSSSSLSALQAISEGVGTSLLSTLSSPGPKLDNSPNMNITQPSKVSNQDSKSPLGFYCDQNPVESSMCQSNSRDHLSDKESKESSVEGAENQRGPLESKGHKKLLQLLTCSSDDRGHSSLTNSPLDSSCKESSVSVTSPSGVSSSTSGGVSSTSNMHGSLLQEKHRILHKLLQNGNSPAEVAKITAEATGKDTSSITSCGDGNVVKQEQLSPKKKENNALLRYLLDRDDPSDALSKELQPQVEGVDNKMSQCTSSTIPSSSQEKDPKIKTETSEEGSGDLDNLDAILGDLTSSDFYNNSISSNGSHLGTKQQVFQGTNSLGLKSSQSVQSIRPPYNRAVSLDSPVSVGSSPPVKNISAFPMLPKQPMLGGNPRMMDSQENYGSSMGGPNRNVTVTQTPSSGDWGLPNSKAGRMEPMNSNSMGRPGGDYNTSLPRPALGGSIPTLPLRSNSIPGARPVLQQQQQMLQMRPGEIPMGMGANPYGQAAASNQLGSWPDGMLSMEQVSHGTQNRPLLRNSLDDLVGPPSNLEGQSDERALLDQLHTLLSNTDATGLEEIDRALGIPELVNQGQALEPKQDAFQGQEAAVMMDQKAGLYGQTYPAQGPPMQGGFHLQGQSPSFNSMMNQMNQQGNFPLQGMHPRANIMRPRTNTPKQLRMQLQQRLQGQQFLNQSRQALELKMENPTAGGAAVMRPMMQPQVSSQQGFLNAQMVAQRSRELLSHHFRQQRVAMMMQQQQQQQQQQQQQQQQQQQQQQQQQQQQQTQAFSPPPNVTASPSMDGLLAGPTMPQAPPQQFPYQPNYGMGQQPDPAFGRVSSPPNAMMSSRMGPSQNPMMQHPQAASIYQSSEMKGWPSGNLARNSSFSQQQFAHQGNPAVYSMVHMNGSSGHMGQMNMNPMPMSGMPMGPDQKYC

Fatty acid synthase = Fatty acid synthase (Homo sapiens, UniProt P49327); test: inhibition of human FAS-TE enzyme activity – biochemical, kinetic fluorescence intensity, dose response (AID 624326); assay type: functional;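 note: rate of fluorescence rise from hydrolysis of a fluorogenic O-methyl fluorescein ester substrate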
Vero [5] = test: cells; assay type: functional, cell-based; details: Chlorocebus sabaeus
Vero [6] = test: cells; assay type: functional; details: Chlorocebus sabaeus
Bcl-2-related protein A1 = target: T3, Bcl-2-related protein A1 (Mus musculus, UniProt Q07440); assay type: functional;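 note: confirmatory dose–response counterscreen on Bfl-1, used to check hits from a UBC13 polyubiquitin inhibitor campaign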
T3 sequence (Q07440 whole entry): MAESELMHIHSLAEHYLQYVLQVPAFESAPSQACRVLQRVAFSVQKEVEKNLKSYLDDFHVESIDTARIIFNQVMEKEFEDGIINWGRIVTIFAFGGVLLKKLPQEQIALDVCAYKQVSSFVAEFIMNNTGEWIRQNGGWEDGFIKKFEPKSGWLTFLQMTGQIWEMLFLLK

[7] = target: T4, Ubiquitin-conjugating enzyme E2 N (Homo sapiens, UniProt P61088); assay type: functional
T4 sequence (P61088 whole entry): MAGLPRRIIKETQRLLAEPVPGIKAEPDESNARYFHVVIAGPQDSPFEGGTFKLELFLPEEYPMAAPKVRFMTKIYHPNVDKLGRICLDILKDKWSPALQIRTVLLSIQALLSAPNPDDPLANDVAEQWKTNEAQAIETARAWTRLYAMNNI

[8] = target: T4, Ubiquitin-conjugating enzyme E2 N; assay type: functional; remark: listed apart in the source
cells = assay type: functional
[9] = system: Streptococcus sp. 'group A'; test: Streptococcus pyogenes SK(-)GAS viability under kanamycin – luminescence, BacTiterGlo, confirmation, counter-screen for streptokinase expression inhibitor project, dose response (AID 1900); assay type: functional, organism-based
[10] = microbe, parasite or virus in culture; assay type: functional; details: Mycobacterium tuberculosis
[11] = THP-1 cell cytotoxicity, dose response, cytotoxicity control for non-replicating M. tuberculosis project (AID 489025); assay type: functional
[12] = Vero E6 cell cytotoxicity, dose response, cytotoxicity control for non-replicating M. tuberculosis project, secondary assay (AID 492998); assay type: functional, VeroE6; details: Vero C1008
Streptococcus = test: GAS UMAA2166 growth inhibition – luminescence, BacTiterGlo, counter-screen for streptokinase expression inhibitor project, dose response (AID 1915); assay type: functional, organism-based;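 note: potency for reduction of bacterial viability or growth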
[13] = viability of PTEN-deleted HCT116 cells – cell-based, HCT116 PTEN knockout, dose response (AID 1047); assay type: functional;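 note: HCT116 colon tumor cells with PTEN knocked out; cells exposed to compound for 60 hours before readout; potency for loss of cell viability measured by luminescence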
[14] = viability of HCT116 lacking mutant beta-catenin – cell-based, human colon tumor, dose response (AID 1045); assay type: functional;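 note: HCT116 colon tumor cells with beta catenin knocked out; cells exposed to compound for 60 hours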
CAAX prenyl protease 1 = target: T5, CAAX prenyl protease 1 (Saccharomyces cerevisiae S288c, UniProt P47154); test: yeast CAAX protease Ste24 inhibition – biochemical, S. cerevisiae, plate reader, cherry-pick, dose response (AID 488815)
T5 sequence (P47154 whole entry): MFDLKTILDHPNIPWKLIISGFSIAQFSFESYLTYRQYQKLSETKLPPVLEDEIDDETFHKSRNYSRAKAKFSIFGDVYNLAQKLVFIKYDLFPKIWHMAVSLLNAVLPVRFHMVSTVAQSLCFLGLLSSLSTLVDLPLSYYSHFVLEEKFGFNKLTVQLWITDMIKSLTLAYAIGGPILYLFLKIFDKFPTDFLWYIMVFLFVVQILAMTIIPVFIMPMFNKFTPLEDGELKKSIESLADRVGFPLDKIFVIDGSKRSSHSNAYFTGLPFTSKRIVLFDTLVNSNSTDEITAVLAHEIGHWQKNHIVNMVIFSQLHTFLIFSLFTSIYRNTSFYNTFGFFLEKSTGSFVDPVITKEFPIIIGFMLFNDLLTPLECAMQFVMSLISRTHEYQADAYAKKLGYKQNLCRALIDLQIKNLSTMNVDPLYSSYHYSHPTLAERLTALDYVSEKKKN

CAAX prenyl protease 2 = target: T6, CAAX prenyl protease 2 (Homo sapiens, UniProt Q9Y256); test: inhibition of Ras-converting CAAX protease Rce1 – biochemical, yeast membranes, quenched-peptide fluorescence, cherry-pick, dose response (AID 588849)
T6 sequence (Q9Y256 whole entry): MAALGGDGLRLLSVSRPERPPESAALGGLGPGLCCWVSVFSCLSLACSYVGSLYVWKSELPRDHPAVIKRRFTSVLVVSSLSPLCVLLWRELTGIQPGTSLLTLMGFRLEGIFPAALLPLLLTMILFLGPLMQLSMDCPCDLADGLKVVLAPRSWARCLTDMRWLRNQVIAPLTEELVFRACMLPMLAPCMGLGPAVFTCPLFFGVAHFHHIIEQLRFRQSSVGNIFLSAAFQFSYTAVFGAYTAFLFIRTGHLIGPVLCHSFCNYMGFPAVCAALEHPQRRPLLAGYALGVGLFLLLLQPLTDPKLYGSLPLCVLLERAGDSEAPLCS

Sequence of Voltage-gated inwardly rectifying potassium channel KCNH2 (Q12809 whole entry): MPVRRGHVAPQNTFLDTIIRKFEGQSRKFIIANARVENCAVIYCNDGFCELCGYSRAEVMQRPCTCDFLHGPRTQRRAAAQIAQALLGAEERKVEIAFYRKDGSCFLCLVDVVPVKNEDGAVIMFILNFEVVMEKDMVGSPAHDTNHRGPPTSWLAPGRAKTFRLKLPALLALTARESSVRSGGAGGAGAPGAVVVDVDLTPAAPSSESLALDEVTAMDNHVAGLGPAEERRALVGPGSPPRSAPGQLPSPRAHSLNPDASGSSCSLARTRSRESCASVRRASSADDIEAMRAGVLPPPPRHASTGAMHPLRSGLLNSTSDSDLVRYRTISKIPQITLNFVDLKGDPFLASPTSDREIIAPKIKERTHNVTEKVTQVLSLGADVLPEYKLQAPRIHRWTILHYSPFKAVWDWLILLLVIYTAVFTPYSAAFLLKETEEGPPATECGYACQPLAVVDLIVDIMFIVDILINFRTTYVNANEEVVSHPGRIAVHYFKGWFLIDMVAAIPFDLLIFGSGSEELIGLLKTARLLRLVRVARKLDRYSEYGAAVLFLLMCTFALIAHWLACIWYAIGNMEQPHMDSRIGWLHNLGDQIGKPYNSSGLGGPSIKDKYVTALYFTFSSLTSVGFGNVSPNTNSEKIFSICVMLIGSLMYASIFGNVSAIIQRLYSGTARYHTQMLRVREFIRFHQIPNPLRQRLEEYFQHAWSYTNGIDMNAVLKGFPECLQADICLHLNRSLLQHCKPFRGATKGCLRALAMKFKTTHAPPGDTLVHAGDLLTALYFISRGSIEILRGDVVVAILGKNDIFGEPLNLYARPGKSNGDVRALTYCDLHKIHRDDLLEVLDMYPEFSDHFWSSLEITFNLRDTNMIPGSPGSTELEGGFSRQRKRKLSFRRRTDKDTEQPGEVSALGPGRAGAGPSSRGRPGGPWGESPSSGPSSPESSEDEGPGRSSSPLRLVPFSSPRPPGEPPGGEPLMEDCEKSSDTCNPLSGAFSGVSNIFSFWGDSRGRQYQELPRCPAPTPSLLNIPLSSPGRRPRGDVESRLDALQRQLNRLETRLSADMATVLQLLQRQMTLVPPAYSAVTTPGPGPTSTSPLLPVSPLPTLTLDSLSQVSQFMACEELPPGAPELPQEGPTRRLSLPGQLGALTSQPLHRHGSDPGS

COC(=O)[C@H](NC(=O)c1cc(-c2ccccc2)nc2ccccc12)c1ccccc1
AC50 [1]: 0.794 µM (inconclusive)

S=C(NCc1ccccn1)NN=Cc1ccccn1
EC50 (Hexokinase HKDC1): 27.8 µM (inactive) | IC50 (Nonstructural protein 1): 3.89 µM (active) | EC50 (Hexokinase-1): > 80 µM (inactive)

O=C(Nc1nc(-c2ccc(S(=O)(=O)N3CCCC3)cc2)cs1)C1COc2ccccc2O1 (centres undefined)
EC50 [2]: 31 µM (inactive) | EC50 [3]: 27.7 µM (not active) | IC50 (H9c2): > 79 µM (inactive) | EC50 [4]: > 79.4 µM (not active) | IC50 (Fatty acid synthase): 1.28 µM (active)

Cc1ccc(C)c(N2CCN(c3ncnc4c3cnn4-c3ccccc3)CC2)c1
IC50 (Vero [5]): > 25 µM (active) | CC50 (Vero [6]): > 25 µM (active)

Nn1cnnc1N/N=C/c1cc(Br)cc(Br)c1O
EC50 (Hexokinase HKDC1): > 80 µM (inactive) | IC50 (Nonstructural protein 1): 10.7 µM (active) | EC50 (Hexokinase-1): 42.3 µM (inactive)

COc1cccc(-c2ccc(NC(=O)C3CCCN(Cc4cnn(C)c4)C3)cc2)c1 (centres undefined)
IC50 (Vero [5]): 21.9 µM (active)

O=C(NNC(=O)c1nn(-c2ccc(F)cc2)ccc1=O)c1ccccc1Cl
IC50 (Bcl-2-related protein A1): > 20 µM (inactive) | IC50 [7]: 9.9 µM (active) | IC50 [8]: 4.29 µM (active)

COc1cc2c(cc1OC)-c1c/c(=N\c3c(C)cc(C)cc3C)n(C)c(=O)n1CC2 [TREQUINSIN HYDROCHLORIDE]
AC50 [1]: 35.5 µM (inconclusive)

CC(Oc1ccc2ccccc2c1)C(=O)NNC(=S)NC(=O)c1ccco1 (centres undefined)
IC50 (cells): 6.03 µM (active) | IC50 (Vero [5]): 24.6 µM (active) | EC50 [9]: 0.074 µM (active) | CC50 (Vero [6]): > 25 µM (active) | CC50 [10]: 39.5 µM (active) | CC50 [11]: 27.3 µM (active) | CC50 [12]: > 20 µM (active) | EC50 (Streptococcus): 0.432 µM (active)

CCOC(=O)N1CCC(NC(=O)CSc2cc(=O)n(CC)c3ccccc23)CC1
EC50 [2]: > 79.4 µM (inactive) | EC50 [3]: > 79.4 µM (not active) | EC50 [4]: > 79.4 µM (not active)

CCOc1ccccc1NC(=O)C(OC(=O)c1ccc(O)cc1)c1ccccc1 (centres undefined)
IC50 (Bcl-2-related protein A1): > 20 µM (inactive) | EC50 [13]: 729 µM (active) | IC50 [7]: 15.2 µM (active) | IC50 [8]: > 20 µM (inactive) | EC50 [14]: 680 µM (active)

CC(C)(CO)Cc1cc(C(C)(C)C)c(O)c(C(C)(C)C)c1
AC50 [1]: 35.5 µM (inconclusive)

COC(=O)c1ccc(Cn2c(O)c(/N=N/C(=N)S)c3ccccc32)o1
IC50 (Bcl-2-related protein A1): > 20 µM (inactive) | IC50 [7]: 14.1 µM (active) | IC50 [8]: > 20 µM (inactive)

CCOC(=O)C1CCN(C(=O)CSc2c3c(nc4ccccc24)CCC3)CC1
EC50 [2]: > 79.4 µM (inactive) | EC50 [3]: > 79.4 µM (not active) | EC50 [4]: > 79.4 µM (not active)

COc1ccc(Cn2c(N)c(S(=O)(=O)c3cccs3)c3nc4ccccc4nc32)cc1
AC50 (CAAX prenyl protease 1): 2.79 µM (active) | AC50 (CAAX prenyl protease 2): 4.33 µM (active)
